Test results: ChEMBL document CHEMBL3991601, “The target landscape of clinical kinase drugs” (Science, 2017)
The source made the active and inactive calls.

Assays:
[1] = target: T1, Mitogen-activated protein kinase kinase kinase 3 (Homo sapiens, UniProt Q99759)
T1 sequence (Q99759 whole entry): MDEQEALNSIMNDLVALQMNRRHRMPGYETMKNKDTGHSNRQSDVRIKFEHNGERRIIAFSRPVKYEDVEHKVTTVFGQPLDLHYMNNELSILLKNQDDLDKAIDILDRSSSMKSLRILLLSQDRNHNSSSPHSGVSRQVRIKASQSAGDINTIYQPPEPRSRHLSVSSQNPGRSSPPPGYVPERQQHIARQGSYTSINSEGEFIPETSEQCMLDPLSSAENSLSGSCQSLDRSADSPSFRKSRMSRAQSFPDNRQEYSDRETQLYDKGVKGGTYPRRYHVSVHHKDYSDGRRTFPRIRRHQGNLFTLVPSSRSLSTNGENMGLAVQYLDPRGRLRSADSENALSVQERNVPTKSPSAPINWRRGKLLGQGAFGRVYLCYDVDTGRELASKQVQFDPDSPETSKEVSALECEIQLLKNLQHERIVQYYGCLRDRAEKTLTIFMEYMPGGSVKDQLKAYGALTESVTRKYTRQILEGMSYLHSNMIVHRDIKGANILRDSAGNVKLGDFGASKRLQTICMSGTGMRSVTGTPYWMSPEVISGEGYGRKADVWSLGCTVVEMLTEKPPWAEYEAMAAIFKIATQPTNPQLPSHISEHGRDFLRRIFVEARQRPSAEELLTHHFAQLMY

[2] = target: T2, Mitogen-activated protein kinase kinase kinase 6 (Homo sapiens, UniProt O95382)
T2 sequence (O95382 whole entry): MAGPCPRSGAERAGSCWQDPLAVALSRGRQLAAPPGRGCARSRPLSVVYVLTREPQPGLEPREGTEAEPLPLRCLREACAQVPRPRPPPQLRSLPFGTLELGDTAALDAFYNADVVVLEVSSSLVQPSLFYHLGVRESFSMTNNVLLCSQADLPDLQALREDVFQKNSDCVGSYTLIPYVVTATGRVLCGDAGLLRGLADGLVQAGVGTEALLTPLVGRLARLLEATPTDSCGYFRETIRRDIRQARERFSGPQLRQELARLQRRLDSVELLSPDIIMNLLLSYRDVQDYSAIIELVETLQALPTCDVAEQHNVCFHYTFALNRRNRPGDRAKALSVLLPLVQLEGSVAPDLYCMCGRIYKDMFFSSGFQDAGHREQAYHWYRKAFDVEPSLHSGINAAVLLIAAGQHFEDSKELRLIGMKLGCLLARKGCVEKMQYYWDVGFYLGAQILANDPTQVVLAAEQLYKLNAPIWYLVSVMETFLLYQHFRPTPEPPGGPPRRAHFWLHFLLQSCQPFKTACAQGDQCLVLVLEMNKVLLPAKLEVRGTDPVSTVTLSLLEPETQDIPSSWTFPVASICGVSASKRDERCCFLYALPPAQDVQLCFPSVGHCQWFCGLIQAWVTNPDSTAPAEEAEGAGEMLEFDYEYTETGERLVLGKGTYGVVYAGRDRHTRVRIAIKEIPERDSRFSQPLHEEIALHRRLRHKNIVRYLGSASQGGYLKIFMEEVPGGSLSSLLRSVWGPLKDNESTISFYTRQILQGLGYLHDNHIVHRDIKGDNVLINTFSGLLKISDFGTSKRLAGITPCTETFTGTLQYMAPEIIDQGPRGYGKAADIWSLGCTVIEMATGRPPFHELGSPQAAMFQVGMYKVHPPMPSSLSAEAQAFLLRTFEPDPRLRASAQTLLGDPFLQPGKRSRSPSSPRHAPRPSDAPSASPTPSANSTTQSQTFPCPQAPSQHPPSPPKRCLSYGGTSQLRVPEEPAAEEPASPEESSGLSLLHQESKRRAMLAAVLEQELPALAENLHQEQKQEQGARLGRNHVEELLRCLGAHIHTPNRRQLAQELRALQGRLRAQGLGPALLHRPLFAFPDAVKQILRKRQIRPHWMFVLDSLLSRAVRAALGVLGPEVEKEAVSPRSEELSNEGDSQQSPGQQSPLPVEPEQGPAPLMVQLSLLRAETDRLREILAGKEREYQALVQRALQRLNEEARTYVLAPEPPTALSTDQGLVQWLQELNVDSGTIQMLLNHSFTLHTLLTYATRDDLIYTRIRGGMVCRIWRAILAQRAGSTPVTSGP

[3] = target: Phosphatidylethanolamine-binding protein 1 (Homo sapiens, UniProt P30086)
[4] = target: cAMP-dependent protein kinase catalytic subunit gamma (Homo sapiens, UniProt P22612)
[5] = target: Protein kinase C theta type (Homo sapiens, UniProt Q04759)
[6] = target: T3, Signal recognition particle receptor subunit alpha (Homo sapiens, UniProt P08240)
T3 sequence (P08240 whole entry): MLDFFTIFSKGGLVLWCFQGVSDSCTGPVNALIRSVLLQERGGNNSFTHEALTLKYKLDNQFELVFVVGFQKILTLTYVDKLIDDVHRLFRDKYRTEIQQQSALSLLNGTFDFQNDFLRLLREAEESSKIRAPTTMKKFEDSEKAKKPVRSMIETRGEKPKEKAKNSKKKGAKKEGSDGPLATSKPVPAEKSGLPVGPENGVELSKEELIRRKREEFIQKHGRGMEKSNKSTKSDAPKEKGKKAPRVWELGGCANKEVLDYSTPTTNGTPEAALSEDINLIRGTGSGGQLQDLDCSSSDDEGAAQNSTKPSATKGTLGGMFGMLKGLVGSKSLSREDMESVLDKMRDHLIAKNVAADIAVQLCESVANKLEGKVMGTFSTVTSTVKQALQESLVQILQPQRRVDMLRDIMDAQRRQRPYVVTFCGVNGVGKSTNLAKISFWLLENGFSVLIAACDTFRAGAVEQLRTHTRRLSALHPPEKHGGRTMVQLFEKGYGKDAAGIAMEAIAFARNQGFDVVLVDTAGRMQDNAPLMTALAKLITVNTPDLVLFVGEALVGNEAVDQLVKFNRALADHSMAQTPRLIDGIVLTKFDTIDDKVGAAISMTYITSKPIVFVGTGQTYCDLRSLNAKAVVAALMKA

[7] = target: Serine/threonine-protein kinase 26 (Homo sapiens, UniProt Q9P289)
Note: in the data inactive means no Kd found up to 30 µM.

Protein kinase C theta type, sequence (Q04759 whole entry): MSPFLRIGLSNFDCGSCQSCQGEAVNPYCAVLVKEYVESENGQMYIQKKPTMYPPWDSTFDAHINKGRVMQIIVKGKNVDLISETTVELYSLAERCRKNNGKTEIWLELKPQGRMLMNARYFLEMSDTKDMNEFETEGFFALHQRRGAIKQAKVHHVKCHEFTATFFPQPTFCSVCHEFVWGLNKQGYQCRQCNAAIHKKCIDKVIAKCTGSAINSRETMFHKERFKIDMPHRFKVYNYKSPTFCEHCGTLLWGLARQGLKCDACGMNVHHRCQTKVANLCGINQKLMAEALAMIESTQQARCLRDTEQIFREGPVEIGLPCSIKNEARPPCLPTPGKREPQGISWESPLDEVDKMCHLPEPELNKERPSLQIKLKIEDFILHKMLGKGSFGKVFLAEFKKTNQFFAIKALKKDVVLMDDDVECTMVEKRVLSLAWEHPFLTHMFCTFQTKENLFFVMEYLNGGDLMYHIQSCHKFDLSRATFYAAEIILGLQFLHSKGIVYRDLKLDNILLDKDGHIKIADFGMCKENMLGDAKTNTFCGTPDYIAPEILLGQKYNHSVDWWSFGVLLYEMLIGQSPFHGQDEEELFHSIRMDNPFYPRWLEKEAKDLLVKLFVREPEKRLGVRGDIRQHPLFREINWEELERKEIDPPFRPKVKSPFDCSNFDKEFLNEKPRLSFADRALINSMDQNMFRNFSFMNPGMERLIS
cAMP-dependent protein kinase catalytic subunit gamma, sequence (P22612 whole entry): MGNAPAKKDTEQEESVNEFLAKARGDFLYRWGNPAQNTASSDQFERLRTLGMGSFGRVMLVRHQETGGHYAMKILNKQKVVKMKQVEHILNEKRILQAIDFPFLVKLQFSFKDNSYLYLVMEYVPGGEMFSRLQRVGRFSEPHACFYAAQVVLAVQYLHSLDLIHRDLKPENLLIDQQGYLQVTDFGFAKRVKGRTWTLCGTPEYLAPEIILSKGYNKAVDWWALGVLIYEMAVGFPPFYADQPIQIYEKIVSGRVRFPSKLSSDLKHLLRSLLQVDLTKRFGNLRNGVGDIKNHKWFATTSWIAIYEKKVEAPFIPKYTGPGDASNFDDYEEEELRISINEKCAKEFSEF
Serine/threonine-protein kinase 26, sequence (Q9P289 whole entry): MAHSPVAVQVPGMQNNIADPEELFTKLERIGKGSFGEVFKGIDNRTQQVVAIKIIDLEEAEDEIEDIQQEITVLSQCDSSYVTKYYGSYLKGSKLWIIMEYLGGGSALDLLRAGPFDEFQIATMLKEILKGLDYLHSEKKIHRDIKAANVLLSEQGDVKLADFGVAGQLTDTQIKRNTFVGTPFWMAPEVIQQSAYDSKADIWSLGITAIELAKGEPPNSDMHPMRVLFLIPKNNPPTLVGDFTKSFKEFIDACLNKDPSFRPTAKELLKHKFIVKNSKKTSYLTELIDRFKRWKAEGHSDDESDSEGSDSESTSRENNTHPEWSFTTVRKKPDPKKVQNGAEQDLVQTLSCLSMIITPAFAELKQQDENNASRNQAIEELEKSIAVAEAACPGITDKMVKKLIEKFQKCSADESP
Phosphatidylethanolamine-binding protein 1, sequence (P30086 whole entry): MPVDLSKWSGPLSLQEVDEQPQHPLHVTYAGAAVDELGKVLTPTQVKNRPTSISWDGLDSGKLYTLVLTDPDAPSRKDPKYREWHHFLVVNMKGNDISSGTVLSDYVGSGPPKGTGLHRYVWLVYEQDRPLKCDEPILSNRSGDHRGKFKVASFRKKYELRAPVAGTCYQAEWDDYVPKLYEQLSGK

SMILES | Kd [1] | Kd [2] | Kd [3] | Kd [4] | Kd [5] | Kd [6] | Kd [7]
Cc1cnc(NC(=O)Nc2cc(Br)c(C)cc2OC[C@@H]2CNCCO2)cn1 [RABUSERTIB] | > 30 µM (inactive) | > 30 µM (inactive) | > 30 µM (inactive) | > 30 µM (inactive) | > 30 µM (inactive) | > 30 µM (inactive) | > 30 µM (inactive)
CO[C@H]1C[C@@H]2CC[C@@H](C)[C@@](O)(O2)C(=O)C(=O)N2CCCC[C@H]2C(=O)O[C@H]([C@H](C)C[C@@H]2CC[C@@H](OP(C)(C)=O)[C@H](OC)C2)CC(=O)[C@H](C)/C=C(\C)[C@@H](O)[C@@H](OC)C(=O)[C@H](C)C[C@H](C)/C=C/C=C/C=C/1C [RIDAFOROLIMUS] | > 30 µM (inactive) | > 30 µM (inactive) | > 30 µM (inactive) | > 30 µM (inactive) | > 30 µM (inactive) | > 30 µM (inactive) | > 30 µM (inactive)
O=c1[nH]ccc2cc(OC3CCNCC3)ccc12 [SAR-407899 FREE BASE] | > 30 µM (inactive) | > 30 µM (inactive) | > 30 µM (inactive) | > 30 µM (inactive) | > 30 µM (inactive) | > 30 µM (inactive) | > 30 µM (inactive)
Cn1cc(-c2cnn3c(N)c(Br)c([C@@H]4CCCNC4)nc23)cn1 [SCH-900776] | > 30 µM (inactive) | > 30 µM (inactive) | > 30 µM (inactive) | > 30 µM (inactive) | > 30 µM (inactive) | > 30 µM (inactive) | > 30 µM (inactive)
CO[C@H]1C[C@@H]2CC[C@@H](C)[C@@](O)(O2)C(=O)C(=O)N2CCCC[C@H]2C(=O)O[C@H]([C@H](C)C[C@@H]2CC[C@@H](OC(=O)C(C)(CO)CO)[C@H](OC)C2)CC(=O)[C@H](C)/C=C(\C)[C@@H](O)[C@@H](OC)C(=O)[C@H](C)C[C@H](C)/C=C/C=C/C=C/1C [TEMSIROLIMUS] | > 30 µM (inactive) | > 30 µM (inactive) | > 30 µM (inactive) | > 30 µM (inactive) | > 30 µM (inactive) | > 30 µM (inactive) | > 30 µM (inactive)
COc1cc2c(Nc3ccc(Cl)c(Cl)c3F)ncnc2cc1OC[C@@H]1C[C@@H]2CN(C)C[C@@H]2C1 [TESEVATINIB] | > 30 µM (inactive) | > 30 µM (inactive) | > 30 µM (inactive) | > 30 µM (inactive) | > 30 µM (inactive) | > 30 µM (inactive) | > 30 µM (inactive)
Cc1cc(Nc2ncnc3ccc(NC4=NC(C)(C)CO4)cc23)ccc1Oc1ccn2ncnc2c1 [TUCATINIB] | > 30 µM (inactive) | > 30 µM (inactive) | > 30 µM (inactive) | > 30 µM (inactive) | > 30 µM (inactive) | > 30 µM (inactive) | > 30 µM (inactive)
CC(C)c1cc(CNc2nc(Nc3cc(C4CC4)[nH]n3)cc(N3CCN(C)CC3)n2)on1 [XL-228] | > 30 µM (inactive) | > 30 µM (inactive) | > 30 µM (inactive) | > 30 µM (inactive) | > 30 µM (inactive) | > 30 µM (inactive) | > 30 µM (inactive)

Further lines, results first:

Kd [1] | Kd [2] | Kd [3] | Kd [4] | Kd [5] | Kd [6] | Kd [7] | SMILES
> 30 µM (inactive) | > 30 µM (inactive) | > 30 µM (inactive) | 0.066 µM (active) | 0.085 µM (active) | > 30 µM (inactive) | 0.017 µM | Cc1nc(Nc2n[nH]c3c2CN(C(=O)N[C@H](CN(C)C)c2ccccc2)C3(C)C)c2sccc2n1 [PF-03758309]
> 30 µM (inactive) | > 30 µM (inactive) | > 30 µM (inactive) | > 30 µM (inactive) | > 30 µM (inactive) | > 30 µM (inactive) | > 30 µM (inactive) | CCS(=O)(=O)c1cccc(-c2cc(C(=O)NC3CCN(C)CC3)c(C)c3[nH]c4ncc(C)cc4c23)c1 [TAK-901]
> 30 µM (inactive) | > 30 µM (inactive) | > 30 µM (inactive) | > 30 µM (inactive) | 0.09 µM (active) | > 30 µM (inactive) | > 30 µM (inactive) | C[C@@H](N)c1ccc(C(=O)Nc2ccnc3[nH]ccc23)cc1 [Y-39983]
> 30 µM (inactive) | > 30 µM (inactive) | > 30 µM (inactive) | > 30 µM (inactive) | > 30 µM (inactive) | > 30 µM (inactive) | > 30 µM (inactive) | CN1C/C=C/CCOc2cccc(c2)-c2ccnc(n2)Nc2cccc(c2)C1 [ZOTIRACICLIB]
